Assay results reported in article PMC8370201, “Amaryllidaceae Alkaloid Cherylline Inhibits the Replication of Dengue and Zika Viruses” (Antimicrobial Agents and Chemotherapy, 2021).
“Also recorded” adds a separate entry of the source. Where two headings read alike, the source gives them in different places.

Assays:
Huh7 cells = experiment: XTT cytotoxicity assay in Huh7 cells; type: cell-based, human; conditions: 0.4 to 400 μM, 72 hours
Method: Cytotoxicity properties were titrated by metabolism monitoring using the XTT [2,3-bis-(2-methoxy-4-nitro-5-sulfophenyl)-2H-tetrazolium-5-carboxanilide] assay kit (Roche, Millipore Sigma), as described before ([24]). Briefly, Huh7 cells were seeded at 10 × 10^3 cells per well in 96-well plates. […] After 72 h of incubation, medium was replaced by phenol-free DMEM (Wisent) containing 0.3 mg/ml XTT, and cells were incubated for 4 h. Absorbance was measured at 450nm using a microplate spectrophotometer (Synergy H1, Biotek). Treatment conditions with 0.5% DMSO were used as the reference control. The percentage of cell viability was calculated at each concentration.

[1] = Cell viability (ATP, Cell-Titer GLO) in Huh7.5 cells; type: cell-based; conditions: human
Method: Where indicated for Huh7.5 and Vero E6 cells and PBMCs, cell viability was measured by monitoring of cellular ATP levels using the Cell-Titer GLO assay kit (Promega). Briefly, 10× 10^3 to 20 × 10^3 cells in 50 to 100 μl were seeded in 48-well or 96-well plates and cultured overnight. AAs were added at the designated concentrations for 24 or 48 h, as specified in the text. Then, 50 to 100 μl of room temperature Cell-Titer GLO reagent was added in each well to room temperature-equilibrated cell plates. Plates were rocked for 2 min and rested for 10 min, and the luminescence signal was measured using a microplate spectrophotometer (Biotek Synergy H1 or Tecan Spark multimode microplate reader). Viability was expressed as a fold change calculated using the value of DMSO-treated cells at each concentration; for each AA and CC50, values were determined.

DENV2 16881s = experiment: Plaque assay, infectious titers of WT DENV2 16881s from Huh7.5 cells; type: cell-based, dengue virus (DENV); conditions: treated 2 hpi, supernatant 48 h later; for production of DENV infectious particles (words): AAs 50 μM
Method: Huh7.5 cells were infected with DENV 16881s, ZIKV H/PF/2013, or ZIKV MR766 (MOI, 0.1) or left uninfected. […] Supernatants were harvested 2 days pi, and PFU were determined by plaque assay on VeroE6 cells. Cells incubated overnight (2 × 10^5 cells/well in 24-well plates) were infected with 10-fold serially diluted virus-containing supernatants for 2 h at 37°C. Inoculum was then replaced with MEM (Life Technologies) containing 1.5% carboxymethylcellulose (Millipore-Sigma). ZIKV- and DENV-infected cells were incubated for 5 and 7 days, respectively. One volume of 10% formaldehyde was added to the cells for fixation. Two hours later, cells were washed with tap water and stained with a 1% crystal violet/10% ethanol solution for 30 min. Wells were rinsed with tap water, and the number of plaques were counted to calculate virus titers.

ZIKV H/PF/2013 [2] = experiment: Plaque assay, infectious titers of WT ZIKV H/PF/2013 from Huh7.5 cells; type: cell-based, Zika virus (ZIKV); conditions: treated 2 hpi, supernatant 48 h later
ZIKV MR766 = experiment: Plaque assay, infectious titers of WT ZIKV MR766 from Huh7.5 cells; type: cell-based, Zika virus (ZIKV); conditions: treated 2 hpi, supernatant 48 h later
[3] = test system: VSV-G pseudotyped HIV-1GFP; type: cell-based
[4] = test system: interferon-sensitive response element (ISRE) transcription; experiment: Type I IFN activation assay (ISRE-luciferase) in LL171 cells; type: cell-based, Murine; conditions: 50 μM, 24 h
Method: In vitro type I IFN activation was measured in LL171 cells using the luciferase assay system kit (Promega). Briefly, 200 μl LL171 reporter cells (L929 cells expressing an IFN stimulated response element [ISRE]-luciferase) were seeded at 1.5 × 10^4 cells/well in 96-well plates and cultured for 16 h. Medium was replaced with DMEM containing cherylline for 24 h. Supernatant was removed, cells were rinsed with PBS, and lysis buffer was added (luciferase assay reagent; Promega). Then, cells were scraped and transferred into opaque 96-well plates. LAR (luciferase assay reagent; Promega) was added to each well, and luminescence was measured at 480 nm using a microplate spectrophotometer (Synergy H1). 5,6-dimethylxanthenone-4-acetic acid (DMXAA, 20 μg/ml) was used as a positive control. All assays were performed in triplicate.

DENVGFP [5] = experiment: Time-of-drug-addition and -removal assays, DENVGFP in Huh7 cells; type: cell-based, dengue virus (DENV); conditions: for infection after removal of compound 2 hpi vs continuous treatment: Huh7, treated 2 h prior to infection, removed 2 hpi, microscopy; for time of drug addition: effect on DENVGFP-infected Huh7 cells 72 hpi / time of drug removal: inhibition of DENVGFP replication: cherylline 50 μM
Method: For the time-of-drug-addition assay, at the time of infection, AAs were added in wells corresponding to 0 h. At 2 hpi, viral inoculum was removed from every well, and AAs were added back to wells corresponding to 0 h and 2 h. At 4, 7, 12, and 24 hpi, AAs or DMSO diluted in DMEM was added to the appropriate wells. After 72 h, cells were trypsinized and fixed in 4% formaldehyde to measure the percentage of infected cells on an FC500 MPL cytometer. Alternatively, pictures of Hoechst 33342-stained cells were acquired on an Axio Observer microscope. All assays were performed in triplicate.
At 2 hpi, plates were washed, and medium was replaced to remove remaining viruses in the supernatant. AAs were added back to all wells, except the ones corresponding to 2 h of treatment, in which fresh medium exclusive of any AA was added. Accordingly, after 4, 7, and 12 h of infection, the supernatant was replaced by fresh medium in corresponding wells. After 72 h of incubation, results were acquired as for the time-of-drug-addition assay. All assays were performed in triplicate.

DENVGFP and DENV2 16881s = experiment: Viral RNA levels by RT-qPCR, DENV; type: cell-based, dengue virus (DENV); conditions: 12 and 24 h; DENVGFP MOI 0.5 Huh7 25 μM; DENV2 16881s MOI 2 Huh7.5 50 μM
ZIKV H/PF/2013 [6] = experiment: Viral RNA levels by RT-qPCR, ZIKV; type: cell-based, Zika virus (ZIKV); conditions: 12 and 24 h; MOI 2, Huh7.5, 50 μM
DENVR2A [7] = conditions: CC50/EC50, Huh7.5
ZIKVR2A [8] = conditions: for SI ZIKVR2A (therapeutic selectivity index): CC50/EC50, Huh7.5
DENVR2A [9] = experiment: microbe, parasite or virus in culture; conditions: Dengue virus, Huh7.5, read-out: EC50 (μM) for DENVR2A
ZIKVR2A [10] = experiment: microbe, parasite or virus in culture; conditions: Zika virus, Huh7.5, read-out: EC50 (μM) for ZIKVR2A, Huh7.5 cells, luciferase at 48 hpi
DENVGFP [11] = experiment: DENVGFP reporter virus infection of Huh7 cells (flow cytometry / microscopy); conditions: for EC50: Dengue virus, Huh-7, read-out: EC50, DENVGFP infection; for DENVGFP infected cells by microscopy: MOI 0.15, 72 hpi; for anti-DENV activity in screening (GFP microscopy, words): Huh7, treated 2 h before DENVGFP MOI 0.15, 72 hpi, at the chosen concentration
DENVGFP [12] = experiment: DENVGFP infection of PBMCs with antibody-dependent enhancement (flow cytometry); conditions: 30 μM

## COc1cc2c(cc1O)CN(C)C[C@H]2c1ccc(O)cc1 [Cherylline, cherylline]
Huh7 cells
  cytotoxic activity of AAs: cytotoxic
[1]
  CC50 at 48 h: > 250 µM
DENV2 16881s; 50 μM
  decrease in DENV 16881s viral titers: 17 fold
ZIKV H/PF/2013 [2]; AAs 50 μM
  decrease in ZIKV H/PF/2013 viral titer: 100 fold
ZIKV MR766; AAs 50 μM
  decrease in WT ZIKV MR766 replication: 8 fold
  decrease in ZIKV MR766 viral titer: 88%
[3]
  HIV-1 infection: no effect; also recorded: did not affect HIV-1 infection; also recorded: did not detect any antiretroviral activity
[4]
  type I interferon (IFN) induction, ISRE transcription: did not trigger a significant amount of type I interferon
DENVGFP [5]
  infection after removal of compound 2 hpi vs continuous treatment: restored virus replication completely
DENVGFP [5]; added at 24 hpi, NITD008 10 μM
  time of drug addition: effect on DENVGFP-infected Huh7 cells 72 hpi: lost one-third of its inhibitory potential
DENVGFP [5]; added at 12 hpi
  time of drug addition: effect on DENVGFP-infected Huh7 cells 72 hpi: some cherylline antiviral activity was lost
DENVGFP [5]; added between 0 and 7 hpi
  time of drug addition: effect on DENVGFP-infected Huh7 cells 72 hpi: entirely blocked viral replication
DENVGFP [5]; present for the first 12 h
  time of drug removal: inhibition of DENVGFP replication: successfully impaired DENV replication
DENVGFP [5]; removed at 2, 4, or 7 hpi
  time of drug removal: inhibition of DENVGFP replication: inhibition of viral replication was lost
DENVGFP and DENV2 16881s
  viral RNA levels (RT-qPCR): decrease in viral RNA levels
ZIKV H/PF/2013 [6]
  viral RNA levels (RT-qPCR): decrease in viral RNA levels
DENVR2A [7]
  SI DENVR2A (therapeutic selectivity index): >28
ZIKVR2A [8]
  SI ZIKVR2A (therapeutic selectivity index): >12.3
ZIKVR2A [8]; read-out: EC50 (μM) for ZIKVR2A, Huh7.5 cells, luciferase at 48 hpi
  EC50: 20.3 µM
DENVR2A [9]
  EC50: 8.8 µM
ZIKVR2A [10]
  EC50: 20.3 µM
DENVGFP [11]
  EC50: 8 µM
DENVGFP [11]; Huh7, 0.4 μM
  DENVGFP infected cells by microscopy: no apparent difference with the control
DENVGFP [11]; Huh7, 2 μM
  DENVGFP infected cells by microscopy: most of the cells were infected
DENVGFP [11]; Huh7, 10 μM
  DENVGFP infected cells by microscopy: Several foci of infected cells became visible
DENVGFP [11]; Huh7, 50 μM
  DENVGFP infected cells by microscopy: no detectable infection; also recorded: no infected cells were observed
DENVGFP [12]; MOI 2, 72 hpi
  median GFP+ cells: 0.1%
DENVGFP [12]; MOI 2, 72 h
  decrease in the percentage of GFP+ cells: 5.3 fold

## O[C@H]1C=C[C@@]23CCN(Cc4cc5c(cc42)OCO5)[C@@H]3C1 [Crinine, crinine]
DENVGFP [5]
  infection after removal of compound 2 hpi vs continuous treatment: restored virus replication completely

## OC1CC2N3CCC2(c2cc4c(cc2C3)OCO4)C2OC12 (centres unmarked) [Flexinine, flexinine]
[1]
  CC50 at 48 h: > 250 µM
DENV2 16881s
  production of DENV infectious particles (words): no effects on DENV production; also recorded: little effect
ZIKV H/PF/2013 [2]
  production of ZIKV H/PF/2013 infectious particles (words): marginal effects on ZIKV production; also recorded: little effect
ZIKV MR766
  production of ZIKV MR766 infectious particles (words): marginal effects on ZIKV production; also recorded: little effect
DENVGFP [5]
  infection after removal of compound 2 hpi vs continuous treatment: restored virus replication completely
DENVR2A [7]
  SI DENVR2A (therapeutic selectivity index): >3.9
ZIKVR2A [8]
  SI ZIKVR2A (therapeutic selectivity index): >1.15
ZIKVR2A [8]; Huh7.5 cells
  ZIKVR2A replication: did not significantly impact ZIKVR2A replication
DENVR2A [9]
  EC50: 63.4 µM
ZIKVR2A [10]
  EC50: 216 µM
DENVGFP [11]
  anti-DENV activity in screening (GFP microscopy, words): moderate

## COc1cc2c(cc1OC)[C@@H](c1ccc(O)cc1)CN(C)C2 [Gigantelline, gigantelline]
DENVGFP [11]
  anti-DENV activity in screening (GFP microscopy, words): weak

## COc1ccc([C@@H]2CN(C)Cc3cc(O)c(OC)cc32)cc1O [Gigantellinine, gigantellinine]
[1]
  CC50 at 48 h: > 250 µM
DENV2 16881s
  production of DENV infectious particles (words): little effect
DENV2 16881s; listed as gigantellinine
  production of DENV infectious particles (words): no effects on DENV production
ZIKV H/PF/2013 [2]
  production of ZIKV H/PF/2013 infectious particles (words): little effect
ZIKV H/PF/2013 [2]; listed as gigantellinine
  production of ZIKV H/PF/2013 infectious particles (words): marginal effects on ZIKV production
ZIKV MR766
  production of ZIKV MR766 infectious particles (words): little effect
ZIKV MR766; listed as gigantellinine
  production of ZIKV MR766 infectious particles (words): marginal effects on ZIKV production
DENVGFP [5]
  infection after removal of compound 2 hpi vs continuous treatment: restored virus replication completely
DENVR2A [7]
  SI DENVR2A (therapeutic selectivity index): >2.3
ZIKVR2A [8]; Huh7.5 cells
  ZIKVR2A replication: did not significantly impact ZIKVR2A replication
DENVR2A [9]
  EC50: 105 µM
ZIKVR2A [10]
  EC50: > 250 µM
DENVGFP [11]
  anti-DENV activity in screening (GFP microscopy, words): moderate

## O=c1c2cc3c(cc2c2cccc4ccn1c42)OCO3 [Hippadine, hippadine]
Huh7 cells
  cytotoxic activity of AAs: cytotoxic
[1]; Huh7.5 cells, Huh7.5, ATP, 48 h posttreatment, read-out: CC50
  CC50 at 48 h: 176 µM
DENV2 16881s
  production of DENV infectious particles (words): little effect
DENV2 16881s; listed as hippadine
  production of DENV infectious particles (words): no effects on DENV production
ZIKV H/PF/2013 [2]; AAs 50 μM
  decrease in ZIKV H/PF/2013 viral titer: 3 fold
  decrease in ZIKV H/PF/2013 viral titers: 70%
ZIKV MR766
  production of ZIKV MR766 infectious particles (words): little effect
DENVGFP [5]
  infection after removal of compound 2 hpi vs continuous treatment: restored virus replication completely
DENVR2A [7]
  SI DENVR2A (therapeutic selectivity index): 2.38
ZIKVR2A [8]
  SI ZIKVR2A (therapeutic selectivity index): 1.54
ZIKVR2A [8]; Huh7.5 cells
  ZIKVR2A replication: did not significantly impact ZIKVR2A replication
DENVR2A [9]
  EC50: 73.8 µM
ZIKVR2A [10]
  EC50: 114 µM
DENVGFP [11]
  anti-DENV activity in screening (GFP microscopy, words): moderate

## CN1CC[C@@]23C=C[C@H](O)C[C@@H]2Oc2c(O)ccc(c23)C1 [Sanguinine, sanguinine]
DENVGFP [5]
  infection after removal of compound 2 hpi vs continuous treatment: restored virus replication completely
DENVGFP [11]
  anti-DENV activity in screening (GFP microscopy, words): very weak

## NC(=O)c1ncn([C@@H]2O[C@H](CO)[C@@H](O)[C@H]2O)n1 [ribavirin, reference compound]
DENVGFP [11]
  EC50: 100 µM
